In patent US9815846B2 (Merck Sharp & Dohme Corp., priority 2014, dated 2017):

Molecular target: human TrkA receptor (Homo sapiens (Human), UniProt P04629)
Assay: DiscoverX PathHunter TrkA functional assay (NGF-stimulated U2OS cells)
Format: cell-based
Settings: U2OS cells expressing human TrkA-PK, Shc1-EA and p75NTR; compound 1 h, then NGF at ~80% of maximal response for 3 h; luminescence
Method: TrkA functional activity was measured using a DiscoverX PathHunter assay. In this assay, U2OS cells express the human TrkA receptor as a fusion with the weakly complementing fragment of B-galactosidase, which DiscoverX calls “Prolink (PK)”; additionally, Shcl is fused with a larger fragment, which is called “Enzyme Acceptor (EA)”. Activation of the TrkA receptor, upon NGF addition, results in the kinase domain being phosphorylated, resulting in subsequent recruitment of Shcl-EA protein. That recruitment results in an active B-galactosidase enzyme that is detected by addition of a chemiluminescent substrate. The human p75^NTR protein was also expressed as a co-receptor for NGF.
All reagents were purchased from DiscoverX, except for the receptor agonists (NGF, BDNF, NT3) which were purchased from Peprotech. Cells were expanded and frozen into cryovials, and stored in the vapor phase of liquid nitrogen, and thawed immediately before use. Thawed cells were added to a 384-well plate at 7500 cells/well, and allowed to incubate overnight. Compound at various concentrations was added the following morning and allowed to incubate on cells for 1 h. Then, NGF was added at a concentration sufficient to elicit ˜80% of a maximal response and allowed to incubate for 3 h at ambient temperature. DiscoverX PathHunter detection reagent was then added and the plate was further incubated for 1 h in the dark. The plate was then read via luminescence on the Perkin Elmer Envision.

Chain of human TrkA receptor (P04629 33-796): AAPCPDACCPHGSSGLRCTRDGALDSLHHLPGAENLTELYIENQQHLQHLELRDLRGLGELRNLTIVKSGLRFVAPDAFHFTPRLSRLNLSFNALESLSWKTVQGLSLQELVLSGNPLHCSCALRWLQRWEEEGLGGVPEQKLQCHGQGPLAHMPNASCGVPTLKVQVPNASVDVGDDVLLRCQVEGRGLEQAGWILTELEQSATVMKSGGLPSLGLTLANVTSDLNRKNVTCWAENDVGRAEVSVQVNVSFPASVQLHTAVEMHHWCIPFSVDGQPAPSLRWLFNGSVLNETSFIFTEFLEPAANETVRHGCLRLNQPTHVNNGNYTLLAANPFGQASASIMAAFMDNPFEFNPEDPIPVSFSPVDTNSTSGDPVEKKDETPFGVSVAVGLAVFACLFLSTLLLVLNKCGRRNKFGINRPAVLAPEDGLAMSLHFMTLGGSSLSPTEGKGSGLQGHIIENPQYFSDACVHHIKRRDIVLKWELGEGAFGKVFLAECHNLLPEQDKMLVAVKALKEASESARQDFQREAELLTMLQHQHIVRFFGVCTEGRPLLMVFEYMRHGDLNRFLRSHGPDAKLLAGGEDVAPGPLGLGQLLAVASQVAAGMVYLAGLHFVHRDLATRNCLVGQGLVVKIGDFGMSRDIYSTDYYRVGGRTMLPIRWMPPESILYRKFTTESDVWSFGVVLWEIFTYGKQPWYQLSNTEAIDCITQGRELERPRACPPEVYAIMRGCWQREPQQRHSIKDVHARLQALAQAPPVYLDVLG

Structure (SMILES) | IC50
Cn1ccc(-c2cc(C(=O)Nc3cc4c(nc3-c3ccccc3)CCN(CCO)C4)ccc2C(F)(F)F)n1 [Example 158, N-(6-(2-hydroxyethyl)-2-phenyl-5,6,7,8-tetrahydro-1,6-naphthyridin-3-yl)-3-(1-methyl-1H-pyrazol-3-yl)-4-(trifluoromethyl)benzamide] | 7.5 nM
Cn1ccc(-c2cc(C(=O)Nc3cnc4c(c3-c3ccccc3)CCNC4=O)ccc2C(F)(F)F)n1 [Example 159, 3-(1-methyl-1H-pyrazol-3-yl)-N-(8-oxo-4-phenyl-5,6,7,8-tetrahydro-1,7-naphthyridin-3-yl)-4-(trifluoromethyl)benzamide] | 260 nM
Cn1ccc(-c2cc(C(=O)Nc3cnc4c(c3-c3ccccc3)CN(C(=O)CO)CC4)ccc2C(F)(F)F)n1 [Example 160, N-(6-(2-hydroxyacetyl)-4-phenyl-5,6,7,8-tetrahydro-1,6-naphthyridin-3-yl)-3-(1-methyl-1H-pyrazol-3-yl)-4-(trifluoromethyl)benzamide] | 4.7 nM
Cn1ccc(-c2cc(C(=O)Nc3cc4c(nc3-c3ccccc3)CNC4=O)c(F)cc2C(F)(F)F)n1 [Example 161, 2-fluoro-5-(1-methyl-1H-pyrazol-3-yl)-N-(5-oxo-2-phenyl-6,7-dihydro-5H-pyrrolo[3,4-b]pyridin-3-yl)-4-(trifluoromethyl)benzamide] | 0.38 nM
O=C(Nc1cc2c(nc1-c1ccccc1)CN(C(=O)CO)C2)c1cc(-c2ncccn2)c(C(F)(F)F)cc1F [Example 162, 2-fluoro-N-(6-(2-hydroxyacetyl)-2-phenyl-6,7-dihydro-5H-pyrrolo[3,4-b]pyridin-3-yl)-5-(pyrimidin-2-yl)-4-(trifluoromethyl)benzamide] | 180 nM
C[C@@H](O)C(=O)N1CCc2nc(-c3ccccc3)c(NC(=O)c3ccc(C(F)(F)F)c(-c4ccn(C)n4)c3)cc2C1 [Example 163, (R)-N-(6-(2-hydroxypropanoyl)-2-phenyl-5,6,7,8-tetrahydro-1,6-naphthyridin-3-yl)-3-(1-methyl-1H-pyrazol-3-yl)-4-(trifluoromethyl)benzamide] | 1.3 nM
Cn1ccc(-c2cc(C(=O)Nc3cc(-c4ccc(C(N)=O)cn4)cnc3-c3ccccc3)c(F)cc2C(F)(F)F)n1 [Example 164, 5′-(2-Fluoro-5-(1-methyl-1H-pyrazol-3-yl)-4-(trifluoromethyl)benzamido)-6′-phenyl-[2,3′-bipyridine]-5-carboxamide] | 0.51 nM
NC(=O)c1ccc(-c2cnc(-c3ccccc3)c(NC(=O)c3cc(-c4cc[nH]n4)c(C(F)(F)F)cc3F)c2)cc1 [Example 165, N-(5-(4-carbamoylphenyl)-2-phenylpyridin-3-yl)-2-fluoro-5-(1H-pyrazol-3-yl)-4-(trifluoromethyl)benzamide] | 2.3 nM
CNC(=O)c1ccc(-c2cnc(-c3ccccc3)c(NC(=O)c3cc(-c4cc[nH]n4)c(C(F)(F)F)cc3F)c2)cc1 [Example 166, 2-fluoro-N-(5-(4-(methylcarbamoyl)phenyl)-2-phenylpyridin-3-yl)-5-(1H-pyrazol-3-yl)-4-(trifluoromethyl)benzamide] | 12 nM
O=C(Nc1cc(Oc2ccccn2)cnc1-c1ccccc1)c1cc(-c2ncccn2)c(C(F)(F)F)cc1F [Example 167, 2-fluoro-N-(2-phenyl-5-(pyridin-2-yloxy)pyridin-3-yl)-5-(pyrimidin-2-yl)-4-(trifluoromethyl)benzamide] | 24 nM
O=C(Nc1cc(-c2ccc(CO)cn2)cnc1-c1ccccc1)c1cc(-c2ncccn2)c(C(F)(F)F)cc1F [Example 168, 2-fluoro-N-(5-(hydroxymethyl)-6′-phenyl-[2,3′-bipyridin]-5′-yl)-5-(pyrimidin-2-yl)-4-(trifluoromethyl)benzamide] | 0.68 nM
NC(=O)c1cnc(-c2cnc(-c3ccccc3)c(NC(=O)c3cc(-c4ncccn4)c(C(F)(F)F)cc3F)c2)nc1 [Example 169, 2-(5-(2-fluoro-5-(pyrimidin-2-yl)-4-(trifluoromethyl)benzamido)-6-phenylpyridin-3-yl)pyrimidine-5-carboxamide] | 0.59 nM
CC(=O)NCc1cnc(-c2cnc(-c3ccccc3)c(NC(=O)c3cc(-c4ncccn4)c(C(F)(F)F)cc3F)c2)nc1 [Example 170, N-(5-(5-(acetamidomethyl)pyrimidin-2-yl)-2-phenylpyridin-3-yl)-2-fluoro-5-(pyrimidin-2-yl)-4-(trifluoromethyl)benzamide] | 16 nM
Cn1ccc(-c2cc(C(=O)Nc3cc(-c4ccc(C(=O)O)cn4)cnc3-c3ccccc3)c(F)cc2C(F)(F)F)n1 [Example 171, 5′-(2-fluoro-5-(1-methyl-1H-pyrazol-3-yl)-4-(trifluoromethyl)benzamido)-6′-phenyl-[2,3′-bipyridine]-5-carboxylic acid] | 10 nM
Cn1ccc(-c2cc(C(=O)Nc3cc(-c4ccc(C(C)(C)O)cn4)cnc3-c3ccccc3)c(F)cc2C(F)(F)F)n1 [Example 172, 2-fluoro-N-(5-(2-hydroxypropan-2-yl)-6′-phenyl-[2,3′-bipyridin]-5′-yl)-5-(1-methyl-1H-pyrazol-3-yl)-4-(trifluoromethyl)benzamide] | 0.26 nM
NC(=O)c1ccnc(-c2cnc(-c3ccccc3)c(NC(=O)c3cc(-c4ncccn4)c(C(F)(F)F)cc3F)c2)n1 [Example 173, 2-(5-(2-fluoro-5-(pyrimidin-2-yl)-4-(trifluoromethyl)benzamido)-6-phenylpyridin-3-yl)pyrimidine-4-carboxamide] | 4.9 nM
CNC(=O)c1ccc(-c2cnc(-c3ccccc3)c(NC(=O)c3cc(-c4ncccn4)c(C(F)(F)F)cc3F)c2)nc1 [Example 174, 5′-(2-fluoro-5-(pyrimidin-2-yl)-4-(trifluoromethyl)benzamido)-N-methyl-6′-phenyl-[2,3′-bipyridine]-5-carboxamide] | 4.8 nM
NC(=O)c1ncc(-c2cnc(-c3ccccc3)c(NC(=O)c3cc(-c4ncccn4)c(C(F)(F)F)cc3F)c2)cn1 [Example 175, 5-(5-(2-fluoro-5-(pyrimidin-2-yl)-4-(trifluoromethyl)benzamido)-6-phenylpyridin-3-yl)pyrimidine-2-carboxamide] | 12.4 nM
O=C(Nc1cc(OCc2ccncc2)cnc1-c1ccccc1)c1cc(-c2ncccn2)c(C(F)(F)F)cc1F [Example 176, 2-fluoro-N-(2-phenyl-5-(pyridin-4-ylmethoxy)pyridin-3-yl)-5-(pyrimidin-2-yl)-4-(trifluoromethyl)benzamide] | 6.3 nM
NC(=O)N1CCN(c2cnc(-c3ccccc3)c(NC(=O)c3cc(-c4ncccn4)c(C(F)(F)F)cc3F)c2)CC1 [Example 177, 4-(5-(2-fluoro-5-(pyrimidin-2-yl)-4-(trifluoromethyl)benzamido)-6-phenylpyridin-3-yl)piperazine-1-carboxamide] | 18 nM
CC(N)c1ccc(-c2cnc(-c3ccccc3)c(NC(=O)c3cc(-c4ccn(C)n4)c(C(F)(F)F)cc3F)c2)nc1 (stereo not drawn) [Example 178, N-(5-(1-aminoethyl)-6′-phenyl-[2,3′-bipyridin]-5′-yl)-2-fluoro-5-(1-methyl-1H-pyrazol-3-yl)-4-(trifluoromethyl)benzamide] | 0.29 nM
Cn1ccc(-c2cc(C(=O)Nc3cnc(Cc4nnnn4C)nc3-c3ccccc3)c(F)cc2C(F)(F)F)n1 [Example 179, 2-Fluoro-5-(1-methyl-1H-pyrazol-3-yl)-N-(2-((1-methyl-1H-tetrazol-5-yl)methyl)-4-phenylpyrimidin-5-yl)-4-(trifluoromethyl)benzamide] | 1 nM
CCn1c(Cc2ncc(NC(=O)c3cc(-c4ccn(C)n4)c(C(F)(F)F)cc3F)c(-c3ccccc3)n2)n[nH]c1=O [Example 180, N-(2-((4-ethyl-5-oxo-4,5-dihydro-1H-1,2,4-triazol-3-yl)methyl)-4-phenylpyrimidin-5-yl)-2-fluoro-5-(1-methyl-1H-pyrazol-3-yl)-4-(trifluoromethyl)benzamide] | 3.2 nM
Cn1ccc(-c2cc(C(=O)Nc3cnc(CN4CCN(S(C)(=O)=O)CC4)nc3-c3ccccc3)c(F)cc2C(F)(F)F)n1 [Example 182, 2-Fluoro-5-(1-methyl-1H-pyrazol-3-yl)-N-(2-((4-(methylsulfonyl)piperazin-1-yl)methyl)-4-phenylpyrimidin-5-yl)-4-(trifluoromethyl)benzamide] | 5.1 nM
Cn1ccc(-c2cc(C(=O)Nc3ccc(CN4CC5(COC5)C4)nc3-c3ccccc3)c(F)cc2C(F)(F)F)n1 [Example 183, N-(6-((2-oxa-6-azaspiro[3.3]heptan-6-yl)methyl)-2-phenylpyridin-3-yl)-2-fluoro-5-(1-methyl-1H-pyrazol-3-yl)-4-(trifluoromethyl)benzamide] | 7 nM
Cn1ccc(-c2cc(C(=O)Nc3cnc(CN4C[C@@H](O)[C@@H](O)C4)nc3-c3ccccc3)c(F)cc2C(F)(F)F)n1 [Example 184, N-(2-(((3S,4R)-3,4-dihydroxypyrrolidin-1-yl)methyl)-4-phenylpyrimidin-5-yl)-2-fluoro-5-(1-methyl-1H-pyrazol-3-yl)-4-(trifluoromethyl)benzamide] | 4.1 nM
O=C(Nc1cc2c(nc1-c1ccccc1)C(=O)NC2=O)c1cc(-c2ncccn2)c(C(F)(F)F)cc1F [Example 185, N-(5,7-Dioxo-2-phenyl-6,7-dihydro-5H-pyrrolo[3,4-b]pyridin-3-yl)-2-fluoro-5-(pyrimidin-2-yl)-4-(trifluoromethyl)benzamide] | 18 nM
Cn1ccc(-c2cc(C(=O)Nc3cnc(CN4C(=O)CCC4=O)nc3-c3ccccc3)c(F)cc2C(F)(F)F)n1 [Example 187, N-(2-((2,5-dioxopyrrolidin-1-yl)methyl)-4-phenylpyrimidin-5-yl)-2-fluoro-5-(1-methyl-1H-pyrazol-3-yl)-4-(trifluoromethyl)benzamide] | 0.68 nM
Cn1ccc(-c2cc(C(=O)Nc3cc4c(nc3-c3ccccc3)CNC4)c(F)cc2C(F)(F)F)n1 [Example 188, 2-Fluoro-5-(1-methyl-1H-pyrazol-3-yl)-N-(2-phenyl-6,7-dihydro-5H-pyrrolo[3,4-b]pyridin-3-yl)-4-(trifluoromethyl)benzamide] | 2.9 nM
Cn1ccc(-c2cc(C(=O)Nc3cnc(C4CCCNC4=O)nc3-c3ccccc3)c(F)cc2C(F)(F)F)n1 (stereo not drawn) [Example 193, 2-Fluoro-5-(1-methyl-1H-pyrazol-3-yl)-N-(2-(2-oxopiperidin-3-yl)-4-phenylpyrimidin-5-yl)-4-(trifluoromethyl)benzamide] | 3.9 nM
